Data reported in ChEMBL document CHEMBL3217747, “Discovery and pharmacological characterization of a selective delta opiate receptor antagonist (CP-646,777)” (Medchemcomm, 2011).

Key:
[1] = target: Kappa-type opioid receptor (Homo sapiens, UniProt P41145); assay: Displacement of [3H]diprenorphine from human kappa opioid receptor expressed in CHO cells by liquid scintillation counting analysis; type: cell-based
MDCK = assay: Efflux ratio of apparent permeability across […] in MDCK cells expressing human P-gp; type: ADME, cell-based, Canis lupus familiaris; conditions: dog
[2] = In vitro clearance in human liver microsomes; type: ADME; conditions: read-out: CLH
Mu-type opioid receptor = Mu-type opioid receptor (Homo sapiens, UniProt P35372); assay: Displacement of [3H]diprenorphine from human mu opioid receptor expressed in CHO cells by liquid scintillation counting analysis; type: cell-based
[3] = target: T1, Delta-type opioid receptor (Homo sapiens, UniProt P41143); assay: Displacement of [3H]diprenorphine from human delta opioid receptor expressed in CHO cells by liquid scintillation counting analysis; type: cell-based
[4] = target: T1, Delta-type opioid receptor; assay: Antagonist activity at delta opioid receptor (unknown origin) assessed as [35S]-GTPgammaS binding by liquid scintillation counting analysis; type: functional
Mus musculus = organism: Mus musculus; assay: Reversal of SNC-80 induced hypothermia in ICR mouse assessed as rectal temperature; type: functional
[5] = Ratio of ED50 for Reversal of SNC-80 induced hypothermia in ICR mouse over Ki for human delta opioid receptor
[6] = Plasma concentration in mouse at 32 mg/kg, sc after 4 hrs; type: ADME, organism-based; design: dose 32 mg/kg, route subcutaneous
Cerebrospinal fluid [7] = assay: Drug uptake in rat cerebrospinal fluid at 10 mg/kg, sc; type: ADME, organism-based; design: dose 10 mg/kg, route subcutaneous; conditions: in vivo, read-out: Drug uptake
Brain = assay: Ratio of drug uptake from wild type P-gp mouse brain to P-gp deficient mouse brain compound treated subcutaneously; type: ADME; conditions: sc
[8] = Ratio of plasma concentration in mouse over Ki for human delta opioid receptor; type: ADME, cell-free
[9] = Fraction unbound in mouse at 32 mg/kg, sc after 4 hrs; type: ADME, organism-based; design: dose 32 mg/kg, route subcutaneous; conditions: in vivo
Cerebrospinal fluid [10] = assay: Drug uptake in rat cerebrospinal fluid at 32 mg/kg, sc; type: ADME, organism-based; design: dose 32 mg/kg, route subcutaneous; conditions: in vivo, read-out: Drug uptake

T1 sequence (P41143 whole entry): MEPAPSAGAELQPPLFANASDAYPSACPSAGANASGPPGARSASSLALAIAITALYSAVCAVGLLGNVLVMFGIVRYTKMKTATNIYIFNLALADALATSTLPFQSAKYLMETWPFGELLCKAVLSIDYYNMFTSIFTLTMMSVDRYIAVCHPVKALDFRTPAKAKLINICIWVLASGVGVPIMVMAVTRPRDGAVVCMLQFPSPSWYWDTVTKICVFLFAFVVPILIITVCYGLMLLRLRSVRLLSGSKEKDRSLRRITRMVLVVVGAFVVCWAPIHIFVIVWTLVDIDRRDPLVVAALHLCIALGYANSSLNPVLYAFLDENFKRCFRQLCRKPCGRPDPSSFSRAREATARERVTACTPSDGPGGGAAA
Mu-type opioid receptor, sequence (P35372 whole entry): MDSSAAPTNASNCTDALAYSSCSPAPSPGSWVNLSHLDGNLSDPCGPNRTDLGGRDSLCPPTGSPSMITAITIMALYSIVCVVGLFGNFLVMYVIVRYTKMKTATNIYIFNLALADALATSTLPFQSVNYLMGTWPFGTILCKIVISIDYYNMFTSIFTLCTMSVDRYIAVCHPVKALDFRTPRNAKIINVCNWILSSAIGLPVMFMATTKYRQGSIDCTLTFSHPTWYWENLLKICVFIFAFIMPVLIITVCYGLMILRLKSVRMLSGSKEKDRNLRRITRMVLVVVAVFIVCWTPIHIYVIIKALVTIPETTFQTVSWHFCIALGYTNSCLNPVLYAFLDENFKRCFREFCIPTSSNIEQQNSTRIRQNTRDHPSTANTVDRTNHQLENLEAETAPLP
Kappa-type opioid receptor, sequence (P41145 whole entry): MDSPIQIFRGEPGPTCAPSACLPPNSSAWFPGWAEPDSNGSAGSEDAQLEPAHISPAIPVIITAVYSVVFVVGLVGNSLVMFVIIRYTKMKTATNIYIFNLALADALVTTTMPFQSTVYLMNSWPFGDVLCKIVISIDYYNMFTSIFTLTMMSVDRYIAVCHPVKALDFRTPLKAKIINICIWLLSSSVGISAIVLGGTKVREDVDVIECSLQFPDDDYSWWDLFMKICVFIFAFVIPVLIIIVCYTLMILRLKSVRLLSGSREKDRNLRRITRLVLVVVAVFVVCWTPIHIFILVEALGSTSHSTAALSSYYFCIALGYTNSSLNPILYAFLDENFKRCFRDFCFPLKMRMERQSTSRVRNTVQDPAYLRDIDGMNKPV

CCCC(C)CN1CCC(c2cccc(O)c2)(c2ncc(C(=O)N(CC)CC)cn2)CC1 (stereo not drawn) gave a Ki [1] greater than 890 nM, a Ratio (MDCK) of 13 and a CLint scaled [2] of 40 mL/min/kg. For the same compound, the Ki (Mu-type opioid receptor) was greater than 890 nM, the Ki [3] was 6 nM and the IC50 [4] was 21 nM.

With CCC[C@@H](C)CN1CCC(c2cccc(O)c2)(c2ncc(C(=O)N(CC)CC)cn2)CC1 the ED50 (Mus musculus) was 3 mg/kg, the Ki [1] was 142 nM and the Ratio [5] was 15. For the same compound, the Ratio (MDCK) was 13, the concentration at 4 h [6] was 7500 nM and the concentration (Cerebrospinal fluid [7]) was 103 nM. The CLint scaled [2] was 48 mL/min/kg, the Ki (Mu-type opioid receptor) was 830 nM and the Ratio (Brain) was 6.5. For the same compound, the Ratio [8] was 100, the Ki [3] was 2 nM and the IC50 [4] was 35 nM. For the same compound, the fraction unbound at 4 h [9] was 0.3 and the concentration (Cerebrospinal fluid [10]) was 300 nM.

CCCC(C)CN1CCC(c2cccc(C(N)=O)c2)(c2ncc(C(=O)N(CC)CC)cn2)CC1 (stereo not drawn) gave a Ki [1] of 65 nM, a Ratio (MDCK) of 13 and a CLint scaled [2] of 13 mL/min/kg. For the same compound, the Ki (Mu-type opioid receptor) was greater than 890 nM, the Ki [3] was 2 nM and the IC50 [4] was 35 nM.

Work on CCCC(C)CN1CCC(c2ccc(C(=O)N(C)C)cc2)(c2cccc(O)c2)CC1 (stereo not drawn) yielded a CLint scaled [2] of 80 mL/min/kg and a Ki (Mu-type opioid receptor) greater than 890 nM.
